In publication PMC4894402, “Characterization of the honeybee AmNaV1 channel and tools to assess the toxicity of insecticides” (Scientific Reports, 2015):
pEC50: −log10 of the molar value.

Biological target: T1, AmNaV1 (Apis mellifera NaV1 voltage-gated sodium channel) (Apis mellifera, UniProt C9D7C5)
T1 construct: gene PARA; AmNaV1 channel expressed in Xenopus oocytes; with TipE regulatory subunit (honeybee)
Assay: two-microelectrode voltage-clamp in Xenopus oocytes, tail current dose-response
Type: cell-based

T1 sequence (C9D7C5 1-2044): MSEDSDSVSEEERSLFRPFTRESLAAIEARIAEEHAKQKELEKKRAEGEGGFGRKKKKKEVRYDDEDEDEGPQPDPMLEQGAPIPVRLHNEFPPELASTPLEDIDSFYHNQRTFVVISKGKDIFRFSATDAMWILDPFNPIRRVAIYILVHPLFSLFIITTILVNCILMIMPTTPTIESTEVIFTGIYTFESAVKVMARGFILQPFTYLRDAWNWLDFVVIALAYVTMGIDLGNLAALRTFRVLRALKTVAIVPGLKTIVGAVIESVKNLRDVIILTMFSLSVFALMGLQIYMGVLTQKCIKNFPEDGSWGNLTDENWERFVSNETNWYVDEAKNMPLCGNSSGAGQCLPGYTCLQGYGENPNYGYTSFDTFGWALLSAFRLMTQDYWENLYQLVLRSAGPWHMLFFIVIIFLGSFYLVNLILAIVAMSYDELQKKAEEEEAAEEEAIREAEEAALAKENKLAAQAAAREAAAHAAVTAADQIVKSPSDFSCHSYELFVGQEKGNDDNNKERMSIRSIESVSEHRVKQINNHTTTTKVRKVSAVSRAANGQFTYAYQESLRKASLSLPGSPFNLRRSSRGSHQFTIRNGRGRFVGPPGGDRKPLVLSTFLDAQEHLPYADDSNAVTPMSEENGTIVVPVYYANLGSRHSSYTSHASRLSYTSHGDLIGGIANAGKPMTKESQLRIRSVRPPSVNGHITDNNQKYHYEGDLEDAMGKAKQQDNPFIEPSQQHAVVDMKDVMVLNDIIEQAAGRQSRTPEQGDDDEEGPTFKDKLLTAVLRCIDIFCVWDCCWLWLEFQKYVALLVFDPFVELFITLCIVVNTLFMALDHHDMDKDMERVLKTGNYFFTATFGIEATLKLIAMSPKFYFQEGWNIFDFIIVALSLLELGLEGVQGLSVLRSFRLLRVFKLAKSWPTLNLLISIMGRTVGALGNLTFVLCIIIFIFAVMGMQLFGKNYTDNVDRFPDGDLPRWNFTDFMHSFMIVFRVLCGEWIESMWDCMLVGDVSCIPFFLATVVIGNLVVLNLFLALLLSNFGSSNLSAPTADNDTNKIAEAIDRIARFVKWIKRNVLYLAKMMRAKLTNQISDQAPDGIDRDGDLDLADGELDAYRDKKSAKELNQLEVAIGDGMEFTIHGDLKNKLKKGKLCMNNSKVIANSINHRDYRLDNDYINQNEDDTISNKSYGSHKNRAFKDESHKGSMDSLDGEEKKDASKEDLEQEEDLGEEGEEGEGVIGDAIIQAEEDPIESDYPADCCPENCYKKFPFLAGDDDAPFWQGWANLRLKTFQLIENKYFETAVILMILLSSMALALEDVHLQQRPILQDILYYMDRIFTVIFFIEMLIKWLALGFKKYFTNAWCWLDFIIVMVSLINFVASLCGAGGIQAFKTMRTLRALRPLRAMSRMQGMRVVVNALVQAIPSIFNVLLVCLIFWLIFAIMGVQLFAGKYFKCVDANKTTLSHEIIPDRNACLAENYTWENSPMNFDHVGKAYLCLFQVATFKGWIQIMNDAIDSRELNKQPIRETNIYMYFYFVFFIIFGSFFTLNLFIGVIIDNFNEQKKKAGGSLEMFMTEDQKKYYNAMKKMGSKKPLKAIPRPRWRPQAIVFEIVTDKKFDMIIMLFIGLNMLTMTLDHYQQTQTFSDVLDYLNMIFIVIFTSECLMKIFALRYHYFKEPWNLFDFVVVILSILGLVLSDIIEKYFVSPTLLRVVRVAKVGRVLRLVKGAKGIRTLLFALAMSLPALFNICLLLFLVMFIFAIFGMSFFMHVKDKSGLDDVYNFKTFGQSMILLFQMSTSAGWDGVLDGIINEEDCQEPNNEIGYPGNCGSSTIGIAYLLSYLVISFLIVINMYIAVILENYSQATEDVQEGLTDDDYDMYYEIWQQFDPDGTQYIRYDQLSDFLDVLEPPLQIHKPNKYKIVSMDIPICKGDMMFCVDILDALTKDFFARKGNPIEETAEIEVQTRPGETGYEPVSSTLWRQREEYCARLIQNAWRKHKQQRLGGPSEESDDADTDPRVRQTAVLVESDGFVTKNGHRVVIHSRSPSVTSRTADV
T1 sequence (A0A120HXK1 1-238 partner): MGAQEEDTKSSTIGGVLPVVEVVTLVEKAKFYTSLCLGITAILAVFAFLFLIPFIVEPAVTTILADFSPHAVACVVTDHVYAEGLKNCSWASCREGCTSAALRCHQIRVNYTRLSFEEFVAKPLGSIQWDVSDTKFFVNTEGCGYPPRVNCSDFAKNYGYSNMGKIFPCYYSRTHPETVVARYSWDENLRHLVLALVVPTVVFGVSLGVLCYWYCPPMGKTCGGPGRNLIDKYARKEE

For `CC(C)C(C(=O)OC(C#N)c1cccc(Oc2ccccc2)c1)c1ccc(Cl)cc1` (stereo not shown) [fenvalerate], the pEC50 was 6.54.
